One may read the IC50 as the concentration needed to halve the response being measured. The low end stands for greater potency, the high end for weaker potency.

The text below walks through data of PubChem BioAssay AID2305 (GlaxoSmithKline (GSK), 2010).

The test system of this assay is P. falciparum 3D7 growth, pLDH absorbance. In words: P. falciparum 3D7 growth inhibition, dose response, strain 3D7 (AID 2305).

`CN(C)Cc1ccc(-c2ccc(NC(=O)c3ccc4c(=O)n(Cc5ccccc5)cnc4c3)cc2)cc1` registered an IC50 of 650 nM.

`COc1ccc(CN2CCC(CNCc3cccc(-c4ccccc4)c3)CC2)cc1` had an IC50 of 240 nM.

`O=C1[C@H]2C(c3ccc(Cl)c(Cl)c3)N3CC(OCc4ccccc4)CC3(C(=O)O)[C@H]2C(=O)N1c1ccc(Br)cc1` (stereo partly specified) gave an IC50 of 340 nM.

Turning to `CN(CCc1ccccn1)c1cccc2c1nc(-c1cccnc1)n2CCNCc1ccccc1`, the IC50 was 1060 nM.

`N=c1c2c(n(Cc3ccccc3)c3c1CCC3)CCCC2`: the IC50 was 870 nM.

In turn, `CC(=O)C1(c2ccccc2)CCN(CCC2(c3ccc(Cl)c(Cl)c3)CN(C(=O)C3CCCC3)CCO2)CC1` (stereo unspecified) registered an IC50 of 800 nM.

`Cc1cc(C(=O)NC2CCN(Cc3ccccc3)CC2)ccc1-c1nc2ccc(C(F)(F)F)cc2[nH]1` registered an IC50 of 890 nM.

`CN1CCC(C(=O)N(Cc2ccc(-c3ccc(CNCCc4ccc(S(C)(=O)=O)cc4)cn3)cc2)C2Cc3ccccc3C2)CC1` registered an IC50 of 660 nM.

`CCN(CCCN1CCCCC1)c1cc(C)nc(Nc2ccc(C)c(F)c2)n1` registered a half-inhibitory concentration (IC50) of 270 nM.

Molecule `c1cncc(Oc2ccc(Nc3ccnc4cc(-c5cccc(CNCCN6CCOCC6)c5)ccc34)cc2)c1` had a concentration for half-maximal inhibition (IC50) of 110 nM.

For the molecule `O=C(c1c(-c2[nH]c3ccccc3c2C(=O)C(F)(F)F)[nH]c2ccccc12)C(F)(F)F`, the IC50 stood at 750 nM.

As for `Cc1cc2nc(-c3cc(Br)ccc3O)c(-c3cc(Br)ccc3O)nc2cc1C`, the IC50 amounted to 850 nM.

As for `O=C(CN1CCCCC1)Nc1ccc(Nc2nccc(NCC(O)c3ccccc3)n2)cc1` (stereo unspecified), the concentration for half-maximal inhibition (IC50) was determined as 580 nM.

In turn, `CO/C(=C\C=C\c1cc2cc(Cl)c(Cl)cc2[nH]1)C(=O)NCCCN1CCN(c2cccc(OC)c2)CC1` returned an IC50 of 840 nM.

Take `CN(Cc1cc(C(F)(F)F)cc(C(F)(F)F)c1)C(=O)C(Cc1ccc(F)cc1)C1CCCNC1` (stereo unspecified): the IC50 amounted to 1540 nM.

For `COc1cccc(C(=O)[C@H]2C[C@@H]2CN(C)CC(O)c2cc(C)c(OC)cc2C)c1` (stereo partly specified), the IC50 was found to be 1140 nM.

As to `Cc1cccc2[nH]c(-c3ccc(-c4ccc(C(=O)NCCN5CCCC5)cc4)s3)nc12`, the IC50 was determined as 900 nM.

As for `CC(CN(C)C)C(=O)Nc1ccc(-c2cccc(-c3nc4ccc(C(F)(F)F)cc4[nH]3)c2)cc1` (stereo unspecified), the IC50 amounted to 210 nM.

With `Oc1c(C(Nc2nc3ccccc3s2)c2ccc(OC(F)F)cc2)ccc2cccnc12` (stereo unspecified), the IC50 is 570 nM.

`CCN(CC)CCCN(Cc1ccc(-c2ccc(C(F)(F)F)cc2)cc1)C(=O)Cn1c(SCc2cccc(F)c2F)cc(=O)c2ccccc21` registered an IC50 of 1320 nM.

`CCCCOc1ccc(C(O)C(CN2CCCCC2)c2ccccc2)cc1` (stereo unspecified) yielded a concentration for half-maximal inhibition (IC50) of 890 nM.

In the case of `CN(c1ccc(C(=O)N[C@@H](CCC(=O)O)C(=O)O)cc1)S(=O)(=O)c1ccc2nc(N)[nH]c(=O)c2c1`, the IC50 amounted to 150 nM.

`O=c1[nH]ccc2nc(N[C@@H]3CCCNC3)nc(Nc3ccc(S(=O)(=O)N4CCOCC4)cc3)c12` returned an IC50 of 740 nM.

In turn, `CCCCOc1c(CCNCCCCNCCc2cc(F)c3ccccc3c2OCCCC)cc(F)c2ccccc12` had an IC50 of 630 nM.

With `COc1cc(C(=O)Nc2ccc3nc(N4CCN(C)CC4)cc(C)c3c2)cc(OC)c1OC`, the IC50 was 290 nM.

Turning to `CC(=O)Nc1ccc(C(=O)Nc2ccc(-c3csc(-c4nc5ccccc5[nH]4)c3)cc2)cn1`, the IC50 was found to be 590 nM.

As for `c1ccc(CNc2nc(NCCN3CCCCC3)nc3ccccc23)cc1`, the IC50 turned out to be 1020 nM.

In turn, `CN(C)CCC1CCCc2ccc(NC(=O)Nc3ccc(-c4ccncc4)c4ccccc34)cc21` (stereo unspecified) registered an IC50 of 1070 nM.

For the molecule `CS(=O)(=O)c1ccc(CCNCc2ccc(-c3ccc(CN(C(=O)C4CC(=O)c5ccccc54)C4Cc5ccccc5C4)cc3)nc2)cc1` (stereo unspecified), the IC50 stood at 860 nM.

On to `COCCN1CCN(Cc2cccc(-c3ccc(-c4nc5ccccc5[nH]4)cc3)c2)CC1`, for which the IC50 worked out at 760 nM.

The molecule `CN1CCCN(Cc2cccc(-c3ccc(NC(=O)c4ccc(Cl)cc4)cc3)c2)CC1` gave an IC50 of 720 nM.

In the case of `COc1ccc2nccc(NN=Cc3cccc([N+](=O)[O-])c3)c2c1`, the IC50 amounted to 400 nM.

In turn, `COc1ccc(Nc2nccc(-c3cccc(NC(=O)c4cc5cc(F)ccc5[nH]4)c3)n2)cc1` gave an IC50 of 1030 nM.

Turning to `O=C(NC1CC1)c1ccc(Cn2c(SCc3cccc([N+](=O)[O-])c3)nc3ccccc3c2=O)cc1`, the IC50 came out at 760 nM.

`CCCCCCNC[C@@H](O)[C@H](Cc1ccccc1)NC(=O)c1cc(NCC)cc(N2CCCCS2(=O)=O)c1`: the IC50 is 1000 nM.

`CCn1c(Cc2ccccc2)nnc1Sc1ccc([N+](=O)[O-])c(C#N)c1` had an IC50 of 1010 nM.

On to `CN1CCN(Cc2ccc(-c3ccc4c(Nc5ccc(F)cc5Cl)ccnc4c3)o2)CC1`, for which the IC50 was 140 nM.

Consider `Cc1ccc(Cn2c(N3CCC(C(=O)NCc4cccs4)CC3)nc3ccccc32)cc1`, for which the IC50 came to 750 nM.

Regarding `CC(C)c1sc(-c2ccc(C(C)(C)C)cc2)nc1C(=O)NCCCN1CCCC1=O`, the IC50 turned out to be 670 nM.

`O=C(Nc1cccc(-c2cccc(-c3nc4ccccc4[nH]3)c2)c1)c1ccoc1` yielded an IC50 of 740 nM.

As to `C[C@H](Nc1nc(C(Oc2ccccc2)c2ccccc2)nc2[nH]ncc12)c1ccccc1` (stereo partly specified), the IC50 was 480 nM.

`CC[C@H]1CN2CC[C@H]1C[C@H]2[C@H](OC(=O)c1ccccc1)c1cc(C#N)nc2ccc(OC)cc12`: the IC50 was 910 nM.

Turning to `O=C(Nc1cccc(-c2cccc(-c3nc4ccccc4[nH]3)c2)c1)c1cccnc1`, the IC50 worked out at 650 nM.

In the case of `CC1CCN(c2nc(C(=O)NCCc3ccc(Cl)c(Cl)c3)c(C(C)C)s2)CC1`, the IC50 worked out at 1930 nM.

In the case of `O=C(Nc1cccc(Cl)c1Cl)Nc1ccnc2ccccc12`, the IC50 was 750 nM.

Molecule `COc1ccc(CCN(C)CCOc2ccc(NC(=O)COc3ccc4sc5ccccc5c(=O)c4c3)cc2)cc1OC` registered an IC50 of 1100 nM.

The molecule `CN(C)CCNC(=O)c1ccc(-c2cnc3ccc(NCc4ccc(Cl)c(Cl)c4)nn23)cc1` had an IC50 of 910 nM.

`C#CCNCc1ccc(-c2ccc(-c3nc4ccc(C(F)(F)F)cc4[nH]3)s2)cc1` gave an IC50 of 740 nM.

For `Cc1cc(F)ccc1[C@H]1CNCCN1C(=O)N(C)[C@@H](C)c1cc(C(F)(F)F)cc(C(F)(F)F)c1`, the IC50 was 230 nM.

Take `COc1ccc(CNC2Cc3ccccc3C2)cc1-c1ccc(S(=O)(=O)NCCN2CCCC2)cc1`: the concentration for half-maximal inhibition (IC50) is 580 nM.

Consider `CCCc1c(C(=O)OCC)c2cc(O)ccc2n1-c1ccc(OC)cc1`, for which the IC50 was 140 nM.

With `CN1CCC(N2CCC(Oc3cccc(C(=O)NCCCC4CCCC4)c3)CC2)CC1`, the IC50 is 840 nM.

On to `COc1ccc(CC(C)NCC(O)c2cccc(C(F)(F)F)c2)cc1F` (stereo unspecified), for which the IC50 turned out to be 830 nM.

`CCOC(=O)c1ccc(N2CCN(c3cc(C)ccc3C)CC2)c(NC(=O)Nc2ccc(Cl)c(Cl)c2)c1` gave an IC50 of 710 nM.

As to `CON=Cc1sc(CNCCCNc2cc(=O)c3ccccc3[nH]2)c(C)c1Br`, the IC50 stood at 960 nM.

In turn, `Cc1cc(OCCCN2CCC(NS(=O)(=O)c3ccc(Cl)c(Cl)c3)CC2)c2ccccc2n1` came in with an IC50 of 900 nM.

Molecule `CC1(C)N=C(N)N=C(N)N1c1cccc(I)c1` showed an IC50 of 130 nM.

In turn, `Cc1c(Cl)cccc1S(=O)(=O)Nc1ccc(CCN2CCC(N)CC2)cc1` returned an IC50 of 1460 nM.

Take `C[C@@H](CC1CCCCC1)NCc1cccc(NS(=O)(=O)c2ccc(O)c(-c3ccno3)c2)c1`: the IC50 is 380 nM.

For the molecule `Clc1cc2c(Nc3ccc(Oc4ccccc4)cc3)ccnc2cc1-c1ccc(CNCCN2CCOCC2)o1`, the IC50 came out at 710 nM.

As to `CCCc1cc(Cc2cnc(N)nc2N)cc(CCC)c1OC`, the IC50 was found to be 890 nM.
